Measurements taken from patent publication US8044022B2, “Hyaluronic acid binding peptides enhance host defense against pathogenic bacteria” (priority 2005, dated 2011).

Assays:
GAS [1] = test: Opsonophagocytic assay with human neutrophils; format: cell-based, Group A Streptococcus; details: 50 μg/ml, 2 hours incubation with human neutrophils, 10% absorbed human serum
Method: Encapsulated GAS are resistant to killing by neutrophils in opsonophagocytic assays in the absence of antibodies that bind the bacterial surface. HABPs binding to the bacterial surface may facilitate neutrophil cytotoxicity. Opsonophagocytic assays were performed wherein GAS were incubated with 50 μg/ml of SCRM, HABP01 or HABP35 and mixed with human neutrophils in medium containing 10% absorbed human serum. Aliquots (25 μl) for quantitative culture were withdrawn immediately after mixing neutrophil with GAS and after 2 hr incubation at 37° C. The log increase or decrease in CFU's was calculated. After 2 hours of incubation, there was about a 1.5 log increase in CFU's for GAS treated with PBS or SCRM.

S. aureus strain PS80 = test: Mouse model of S. aureus surgical wound infection; format: in vivo, C57BL6 mice; details: 100 μg into wound at time of challenge with 10^2 CFU; 3 days later
Method: Bacterial strains. S. aureus strain PS80 (serotype 8) was obtained from the American Type Culture collection (#27700) and is a potent inducer of intraabdominal abscess formation. S. aureus COL is a methicillin resistant strain that produces a serotype 5 capsule. Staphylococci were cultivated for 24 h at 37° C. on Columbia agar (Difco Laboratories, Detroit, Mich.) supplemented with 2% NaCl.
Mouse model of S. aureus wound infection. Mice (C57BL6, male, 6-8 wk old) were obtained from Jackson Laboratories (Bar Harbor, Me.). Groups of mice (N=4/group/experiment) were anesthetized with 100 mg/kg ketamine and 10 mg/kg xylazine, their right thighs were shaved, and the surgical area was disinfected with iodine and 70% ethanol. An incision was made in the skin to expose the thigh muscle, and a 1-cm incision was made with a scalpel into the thigh muscle to the depth of the bone. The muscle was then closed with one 4-0 silk suture, and 10 μl of a S. aureus suspension ranging in dose from 10^2 to 10^4 CFU was introduced into the incision under the suture. The skin was closed with four additional Prolene sutures. The mice were euthanized at 3 days post-surgery. The wounded muscle tissue was excised, weighed (˜0.08 g), and homogenized in 1 ml of tryptic soy broth. Serial dilutions of the homogenates were plated in duplicate and results were expressed as CFU/g tissue. Peptides were administered to animals in two ways. For most experiments, HABPs were solubilized in PBS and administered with a pipet into the wound in a 10 μl volume following challenge with bacteria. A 100 μg dose was used for most experiments. For therapeutic studies, peptide was administered via a 1 ml tuberculin syringe fitted with a 25 gauge needle in a 0.25 ml volume injected into the thigh muscle containing the wound distal from the incision site.
Gross pathology and histologic analysis of host response. […] Histological examination of these wounds confirmed these findings. Muscle tissue was harvested from mice at designated intervals post-surgery, fixed in 10% buffered formalin, and mounted in paraffin; 5 to 6-μm sections were cut and stained with hematoxylin and eosin for microscopic examination. […] The cellular infiltrate was primarily comprised of PMNs and fibrin.
Statistical analyses. All animal experiments were performed at least two times and the data pooled. Comparison of S. aureus CFU/g tissue was made by the Welch modification of the unpaired Student t test (InStat, GraphPad Software, San Diego, Calif.).

[2] = test system: Wild Type GAS (HA encapsulated); test: Fluorometry binding of FITC-conjugated peptide to encapsulated GAS; set-up: species or system Group A Streptococcus
Method: Bacterial strains: GAS strain 950771 is a moderately encapsulated M3 clinical isolate from a child with post-varicella necrotizing fasciitis and sepsis, and an isogenic capsule deficient mutant, 188, derived from 950771. GAS were grown in Todd-Hewitt broth (Difco) to mid-exponential phase OD650 of 0.15 at 37° C. for all experiments. Commercially available trypticase-soy agar medium supplemented with 5% vol/vol sheep blood (BAP)(PML Microbiologicals, British Columbia, Canada) were used for all plate cultures. S. equi s(ATCC 53185) and P. multocida (ATCC 11039) were purchased from ATCC and cultured as recommended. Briefly, S. equi was cultured in Todd-Hewitt broth and S. uberis and P. multocida were cultured in Brain heart infusion (Difco) to OD 650 of 0.15 at 37° C. Quantitative cultures were performed in parallel with each experiment to verify the multiplicity of infection (MOI) of the inoculum.
(§1) Binding of HABP to HA and HA-encapsulated bacteria: To assess whether HABP are able to associate specifically with the GAS capsule, bacteria were cultured to mid-log phase, for maximal HA capsule expression, and incubated with either 10 μg/ml of FITC-conjugated HABP01 or SCRM, with purified HA at 1 mg/ml, as a positive control, or an isogenic mutant strain of GAS deficient in HA capsule, as a negative control. A GAS-specific antibody was used to control for the number of bacteria per well.

[3] = Fluorometry binding of FITC-conjugated peptide to purified HA in well; set-up: species or system rooster
Method: Lyophilized synthetic peptides were resuspended in PBS pH7.4 prior to use in either in vitro or in vivo experiments. Fluorescein conjugation of HABP01 and SCRM was performed using 5,6 carboxyfluorescein, succinimidyl ester (5,6 FAM) (Molecular Probes, Portland, Oreg.) as per manufacturer's instructions and separated on a Sephadex G-25 column (Amersham, Piscataway, N.J.). Purified, high molecular weight rooster comb HA (Sigma-Aldrich, St Louis, Mo.) was used as a positive control for BP binding.
as §1

GAS [4] = test: Bacterial translocation through polarized keratinocyte cultures (Transwell); format: cell-based, Group A Streptococcus; details: two hours after addition of GAS
Method: Cell cultures: For the preparation of in vitro keratinocyte cultures, human primary OKP7 cells were derived from the oropharynx. Keratinocytes were seeded at 5×10^5 cells per well onto polycarbonate Transwell membrane supports (12 well plates, 3.0 μm pore size; Costar) or tissue culture treated plastic ware and cultured for 5-10 days at 37° C. with 5% humidified CO2 in cSFM medium with daily medium changes. Once confluent, the calcium concentration of the cSFM was increased to 1.2 mM and cells were cultured for 2 more days, before the integrity of the monolayer was assessed by measuring permeability to sodium fluorescein, and in some experiments, by measuring transepithelial electrical resistance.
Infection procedures: Keratinocyte layer cultures in Transwell inserts were inoculated in the upper chamber with GAS, S. equi, S. uberis, and P. multocida at a multiplicity of infection (MOI) of 1 bacterium per keratinocyte in the presence or absence of HABP01 or SCRM. Infected cultures were incubated at 37° C. with 5% CO2 for the desired time. In translocation experiments, Transwell inserts containing the keratinocytes were moved to new wells containing fresh medium every 2 hours to prevent overgrowth of bacteria that had translocated through the keratinocytes layer to the lower chamber. Bacterial translocation was quantified by culturing medium from the lower chamber at 2-hour intervals.
Bacterial translocation studies were performed to assess the impact of HABP01 on bacterial paracellular translocation through polarized keratinocyte cultures.
Incubation of GAS in the presence of HABP33, HABP35 and HABP42, also delayed GAS translocation. At two hours after the addition of GAS to the keratinocytes, approximately 530 CFU of GAS were detected in the lower level in cultures treated with PBS or SCRM peptide.

Sequence: HKSVSRHTSMRHSTM [SCRM, reference compound]
- log increase in CFU's (GAS [1]): ~1.5 log
- bacterial burden at the wound site compared with PBS (S. aureus strain PS80): did not have this effect
- binding to encapsulated GAS (in words) ([2]; fluorometry, HABP35 also confocal microscopy, data not shown): did not bind
- Relative binding ([2]; substrate in well: Wild Type GAS, 10 μg/ml FITC-conjugated peptide): 1550 ± 30 relative fluorescent units
- binding to purified HA (in words) ([3]; fluorometry): did not bind
- Relative binding ([3]; substrate in well: HA (1 mg/ml), 10 μg/ml FITC-conjugated peptide): 1520 ± 20 relative fluorescent units
- GAS detected in the lower level (GAS [4]): approximately 530 CFU
